pIC50: −log10 of the molar value.
Tests used:
Assay type in all cases: functional
[1] = target: Adenylate cyclase (Homo sapiens) (UniProt Q8NFM4+O60503+Q08828+P40145+O60266+O95622+O43306+Q08462+P51828); test: Effect of compound on cellular c-AMP levels by activation of Adenylate cyclase
[2] = system: Rattus norvegicus; test: In vitro inhibitory effect on neutrophil superoxide formation isolated from pentobarbital-anesthetized rats
[3] = Ratio of cAMP-elevating activity relative to forskolin

Row | Activity (pM (2*10e6*cells)-1) [1] | pIC50 [2] | Compound | Ratio [3]
1 | 1.3 | 4.81 | O=Cc1ccccc1OCc1ccccc1 | 1.1
2 | 0.26 | 4.89 | CC(=O)c1ccccc1OCc1ccccc1 | 0.22
3 | < 1.23 |  | C=C[C@@]1(C)CC(=O)[C@]2(O)[C@@]3(C)[C@@H](O)CCC(C)(C)[C@@H]3[C@H](O)[C@H](OC(C)=O)[C@@]2(C)O1 | 1
4 | 0.29 | 4.70 | NC(=O)c1ccccc1OCc1ccccc1 | 0.24
5 | 0.56 | < 4.52 | O=Cc1cccc(OCc2ccccc2)c1 | 0.46
6 | 0.26 | 4.83 | O=Cc1ccc(OCc2ccccc2)cc1 | 0.22
7 |  | 4.83 | CN1CCN(CCCN2c3ccccc3Sc3ccc(C(F)(F)F)cc32)CC1 [TRIFLUOPERAZINE] | 

Source: ChEMBL document CHEMBL1133882, “Benzyloxybenzaldehyde analogues as novel adenylyl cyclase activators” (Bioorg Med Chem Lett, 2001)
